Reference: US8129371B2, “Thienopyrimidine and pyrazolopyrimidine compounds and their use as mTOR kinase and PI3 kinase inhibitors” (Wyeth LLC, priority 2007, dated 2012)

Columns and labels:
[1] = molecular target: T1, Human mTOR (FLAG-TOR) (Homo sapiens, UniProt P42345); assay: Human mTOR kinase assay with purified enzyme, DELFIA format; type: biochemical
T1 construct: FLAG
In short: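 Purified FLAG-mTOR in HEPES pH 7.4 buffer with 10 mM MnCl2 was preincubated with inhibitor and reacted 2 h at room temperature with His6-S6K substrate, then stopped with EDTA/EGTA. Phospho-T389 S6K detected by DELFIA with Eu-labelled antibody (40 ng/mL) after plate capture; inhibition computed from signal.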

[2] = molecular target: T2, PI3K (Homo sapiens, UniProt P42336); assay: Fluorescence polarization assay for PI3K; type: biochemical; conditions: PI3 Kinase α; read-out: PI3 Kinase α IC50
T2 construct: PI3 Kinase α IC50; other: PI3 Kinase α; other: PI3 Kinase α isoform, fluorescence polarization
T2 sequence (P42336 whole entry, canonical isoform): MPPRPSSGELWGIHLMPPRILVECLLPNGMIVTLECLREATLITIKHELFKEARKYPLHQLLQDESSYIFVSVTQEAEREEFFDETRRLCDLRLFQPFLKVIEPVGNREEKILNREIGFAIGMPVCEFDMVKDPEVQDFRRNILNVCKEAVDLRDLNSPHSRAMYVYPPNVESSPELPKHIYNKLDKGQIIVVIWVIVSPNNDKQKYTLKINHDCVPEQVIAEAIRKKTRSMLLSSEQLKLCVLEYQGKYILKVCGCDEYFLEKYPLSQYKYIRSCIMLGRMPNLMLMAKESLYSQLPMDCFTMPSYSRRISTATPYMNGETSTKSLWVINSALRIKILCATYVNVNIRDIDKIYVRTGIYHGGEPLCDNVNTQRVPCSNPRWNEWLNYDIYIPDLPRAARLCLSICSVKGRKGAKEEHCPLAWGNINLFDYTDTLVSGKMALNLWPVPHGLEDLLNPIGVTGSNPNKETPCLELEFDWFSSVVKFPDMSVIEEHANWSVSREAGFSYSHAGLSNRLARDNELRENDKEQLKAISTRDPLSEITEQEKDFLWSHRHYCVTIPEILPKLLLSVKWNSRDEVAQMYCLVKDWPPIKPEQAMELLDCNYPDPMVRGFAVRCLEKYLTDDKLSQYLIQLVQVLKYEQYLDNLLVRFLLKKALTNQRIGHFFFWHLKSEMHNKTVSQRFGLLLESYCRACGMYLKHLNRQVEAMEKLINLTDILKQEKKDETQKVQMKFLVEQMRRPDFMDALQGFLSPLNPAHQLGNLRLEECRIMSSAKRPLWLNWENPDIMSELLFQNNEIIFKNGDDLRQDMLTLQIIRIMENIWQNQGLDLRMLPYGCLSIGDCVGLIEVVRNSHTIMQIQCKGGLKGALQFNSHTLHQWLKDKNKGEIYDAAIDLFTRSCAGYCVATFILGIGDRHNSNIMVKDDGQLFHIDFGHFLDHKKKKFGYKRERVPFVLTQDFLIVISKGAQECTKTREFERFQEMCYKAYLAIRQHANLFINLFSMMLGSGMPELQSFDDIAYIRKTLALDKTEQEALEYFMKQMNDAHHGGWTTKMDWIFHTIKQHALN
In short: (§1)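 PI3K was preincubated with compound (final DMSO 1%), and the reaction was started with PIP2/ATP substrate and run 30–60 min. It was stopped with a detector mix giving 10 nM red probe and 70 nM GST-GRP.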

[3] = molecular target: T3, PI3K (Homo sapiens, UniProt P48736); assay: Fluorescence polarization assay for PI3K; type: biochemical; conditions: PI3 Kinase γ; read-out: PI3 Kinase γ IC50
T3 construct: PI3 Kinase γ IC50; other: PI3 Kinase γ; other: PI3 Kinase γ isoform, fluorescence polarization
T3 sequence (P48736 whole entry, canonical isoform): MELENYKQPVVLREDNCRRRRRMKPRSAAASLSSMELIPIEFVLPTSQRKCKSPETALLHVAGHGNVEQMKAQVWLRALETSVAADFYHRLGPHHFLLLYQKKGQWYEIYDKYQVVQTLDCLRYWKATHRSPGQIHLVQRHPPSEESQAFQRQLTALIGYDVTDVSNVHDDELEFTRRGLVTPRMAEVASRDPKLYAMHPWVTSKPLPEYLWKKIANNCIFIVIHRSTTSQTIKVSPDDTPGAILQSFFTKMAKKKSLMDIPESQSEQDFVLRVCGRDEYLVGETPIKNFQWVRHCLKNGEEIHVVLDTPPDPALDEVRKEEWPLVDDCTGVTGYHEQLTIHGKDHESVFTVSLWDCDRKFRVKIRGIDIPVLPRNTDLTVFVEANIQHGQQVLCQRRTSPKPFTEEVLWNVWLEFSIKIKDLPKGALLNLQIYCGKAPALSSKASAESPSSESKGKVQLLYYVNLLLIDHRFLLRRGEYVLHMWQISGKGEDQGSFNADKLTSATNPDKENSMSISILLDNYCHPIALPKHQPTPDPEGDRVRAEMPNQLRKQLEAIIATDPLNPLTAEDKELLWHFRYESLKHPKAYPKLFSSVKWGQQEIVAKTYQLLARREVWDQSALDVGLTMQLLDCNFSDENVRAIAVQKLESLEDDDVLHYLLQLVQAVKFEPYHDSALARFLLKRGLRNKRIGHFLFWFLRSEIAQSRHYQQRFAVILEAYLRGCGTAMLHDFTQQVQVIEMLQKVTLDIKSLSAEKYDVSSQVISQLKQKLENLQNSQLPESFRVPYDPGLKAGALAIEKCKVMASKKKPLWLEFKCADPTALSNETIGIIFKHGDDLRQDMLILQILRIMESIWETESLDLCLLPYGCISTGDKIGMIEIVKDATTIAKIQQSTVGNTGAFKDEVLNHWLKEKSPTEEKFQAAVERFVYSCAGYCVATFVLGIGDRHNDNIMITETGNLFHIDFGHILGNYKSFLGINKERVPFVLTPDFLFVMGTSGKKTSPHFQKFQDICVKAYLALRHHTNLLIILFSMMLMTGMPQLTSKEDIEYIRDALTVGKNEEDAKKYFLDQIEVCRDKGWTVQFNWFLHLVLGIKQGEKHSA
In short: as §1

[4] = system: prostate line LNCap; assay: In vitro cell culture growth assay (MTS), LNCap; type: cell-based; conditions: Homo sapiens, LNCaP, 72 h, LNCap cells, three days after drug treatment
In short: (§2)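 The readout was MTS dye metabolism at 490 nm, taken after 3-day drug exposure that began the day after seeding. Growth was expressed as percent of vehicle-treated wells in the same plate.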

[5] = system: breast line MDA468; assay: In vitro cell culture growth assay (MTS), MDA468; type: cell-based; conditions: Homo sapiens, 72 h, MDA468 cells, three days after drug treatment
In short: as §2

| SMILES | IC50 [1] [nM] | IC50 [2] [nM] | IC50 [3] [nM] | IC50 [4] [nM] | IC50 [5] [nM] |
| --- | --- | --- | --- | --- | --- |
| CCNC(=O)Nc1ccc(-c2nc(N3CC4CCC(C3)O4)c3cnn(C(C)(C)C)c3n2)cc1 [Example 94] | 0.51 | 804 | > 10000 | 50 | 490 |
| CC(C)(C)n1ncc2c(N3CC4CCC(C3)O4)nc(-c3ccc(NC(=O)NCCF)cc3)nc21 [Example 95] | 0.61 | 1060 | > 10000 | 17 | 280 |
| CC(C)(C)n1ncc2c(N3CC4CCC(C3)O4)nc(-c3ccc(NC(=O)NC4CC4)cc3)nc21 [Example 96] | 0.4 | 1140 | > 10000 | 1700 | > 60000 |
| CC(C)(C)n1ncc2c(N3CC4CCC(C3)O4)nc(-c3ccc(NC(=O)NCCO)cc3)nc21 [Example 97] | 0.34 | 282 | 9500 | 20 | 180 |
| CC(C)(C)n1ncc2c(N3CC4CCC(C3)O4)nc(-c3ccc(NC(=O)OCCO)cc3)nc21 [Example 98] | 0.98 | 1420 | > 10000 | 90 | 620 |
| CC(C)(C)n1ncc2c(N3CC4CCC(C3)O4)nc(-c3ccc(NC(=O)Nc4ccccc4)cc3)nc21 [Example 99] | 1.8 | 130 | 577 | 68 | 280 |
| CC(C)(C)n1ncc2c(N3CC4CCC(C3)O4)nc(-c3ccc(NC(=O)Nc4cccnc4)cc3)nc21 [Example 100] | 0.63 | 149 | 794 | 20 | 130 |
| CC(C)(C)n1ncc2c(N3CC4CCC(C3)O4)nc(-c3ccc(NC(=O)Nc4ccncc4)cc3)nc21 [Example 101] | 0.53 | 178 | 727 | 19 | 110 |
| Oc1cccc(-c2nc(N3CC4CCC(C3)O4)c3cnn(-c4ccccc4)c3n2)c1 [Example 102, 3-[4-(8-oxa-3-azabicyclo[3.2.1]oct-3-yl)-1-phenyl-1H-pyrazolo[3,4-d]pyrimidin-6-yl]phenol] | 16 | 1170 | 7820 | 1300 | 5000 |
| CCOC(=O)N1CCC(n2ncc3c(N4CC5CCC(C4)O5)nc(-c4ccc(NC(=O)NC5CCNCC5)cc4)nc32)CC1 [Example 103, ethyl 4-[4-(8-oxa-3-azabicyclo[3.2.1]oct-3-yl)-6-{4-[(piperidin-4-ylcarbamoyl)amino]phenyl}-1H-pyrazolo[3,4-d]pyrimidin-1-yl]piperidine-1-carboxylate] | 6.8 | 874 | 1100 | 5000 | 11000 |
| CNC(=O)Nc1ccc(-c2nc(N3CC4CCC(C3)O4)c3cnn(C4CCC(=O)CC4)c3n2)cc1 [Example 106, 1-(4-(4-(8-oxa-3-azabicyclo[3.2.1]octan-3-yl)-1-(4-oxocyclohexyl)-1H-pyrazolo[3,4-d]pyrimidin-6-yl)phenyl)-3-methylurea] | 0.22 | 1300 | > 10000 | 32 | 110 |
| CNC(=O)Nc1ccc(-c2nc(N3CC4CCC(C3)O4)c3cnn(C4CCC(O)CC4)c3n2)cc1 (centres unmarked) [Example 107, 1-(4-(4-(8-oxa-3-azabicyclo[3.2.1]octan-3-yl)-1-(4-hydroxycyclohexyl)-1H-pyrazolo[3,4-d]pyrimidin-6-yl)phenyl)-3-methylurea] | 0.24 | 1310 | 5000 | 48 | 190 |

Further lines, with some results ahead:

| IC50 [1] [nM] | IC50 [2] [nM] | IC50 [3] [nM] | IC50 [4] [nM] | SMILES | IC50 [5] [nM] |
| --- | --- | --- | --- | --- | --- |
| 8.5 | 3340 | 12000 | 700 | CCOC(=O)Nc1ccc(-c2nc(N3CC4CCC(C3)O4)c3cnn(C4CCN(C(=O)OC)CC4)c3n2)cc1 [Example 111, methyl 4-[6-{4-[(ethoxycarbonyl)amino]phenyl}-4-(8-oxa-3-azabicyclo[3.2.1]oct-3-yl)-1H-pyrazolo[3,4-d]pyrimidin-1-yl]piperidine-1-carboxylate] | 6000 |
| 0.75 | 1260 | > 10000 | 40 | COC(=O)N1CCC(n2ncc3c(N4CC5CCC(C4)O5)nc(-c4ccc(NC(=O)OCCO)cc4)nc32)CC1 [Example 112, methyl 4-[6-(4-{[(2-hydroxyethoxy)carbonyl]amino}phenyl)-4-(8-oxa-3-azabicyclo[3.2.1]oct-3-yl)-1H-pyrazolo[3,4-d]pyrimidin-1-yl]piperidine-1-carboxylate] | 1050 |
| 225 | 7510 | > 10000 | 2700 | COCCOC(=O)Nc1ccc(-c2nc(N3CC4CCC(C3)O4)c3cnn(C4CCN(C(=O)OC)CC4)c3n2)cc1 [Example 113, methyl 4-[6-(4-{[(2-methoxyethoxy)carbonyl]amino}phenyl)-4-(8-oxa-3-azabicyclo[3.2.1]oct-3-yl)-1H-pyrazolo[3,4-d]pyrimidin-1-yl]piperidine-1-carboxylate] | 30000 |
| 36.5 | 1430 | 7480 | 4000 | COC(=O)N1CCC(n2ncc3c(N4CC5CCC(C4)O5)nc(-c4ccc(NC(=O)OCCN)cc4)nc32)CC1 [Example 114, methyl 4-[6-(4-{[(2-aminoethoxy)carbonyl]amino}phenyl)-4-(8-oxa-3-azabicyclo[3.2.1]oct-3-yl)-1H-pyrazolo[3,4-d]pyrimidin-1-yl]piperidine-1-carboxylate] | 6000 |
| 360 | 5060 | 8930 | 1600 | COC(=O)N1CCC(n2ncc3c(N4CC5CCC(C4)O5)nc(-c4ccc(NC(=O)OCCN(C)C)cc4)nc32)CC1 [Example 115, methyl 4-{6-[4-({[2-(dimethylamino)ethoxy]carbonyl}amino)phenyl]-4-(8-oxa-3-azabicyclo[3.2.1]oct-3-yl)-1H-pyrazolo[3,4-d]pyrimidin-1-yl}piperidine-1-carboxylate] | 4600 |
| 335 | 2660 | 6740 | 1700 | COC(=O)N1CCC(n2ncc3c(N4CC5CCC(C4)O5)nc(-c4ccc(NC(=O)OCCN5CCCC5)cc4)nc32)CC1 [Example 116, methyl 4-[4-(8-oxa-3-azabicyclo[3.2.1]oct-3-yl)-6-(4-{[(2-pyrrolidin-1-ylethoxy)carbonyl]amino}phenyl)-1H-pyrazolo[3,4-d]pyrimidin-1-yl]piperidine-1-carboxylate] | 4000 |
| > 800 | > 10000 | > 10000 | 4400 | COC(=O)N1CCC(n2ncc3c(N4CC5CCC(C4)O5)nc(-c4ccc(NC(=O)OCCN5CCOCC5)cc4)nc32)CC1 [Example 117, methyl 4-[6-(4-{[(2-morpholin-4-ylethoxy)carbonyl]amino}phenyl)-4-(8-oxa-3-azabicyclo[3.2.1]oct-3-yl)-1H-pyrazolo[3,4-d]pyrimidin-1-yl]piperidine-1-carboxylate] | 22000 |
